Consider 27 compounds from patent US20140323418A1, “SELECTIVE KINASE INHIBITORS” (PORTOLA PHARMACEUTICALS, INC., priority 2011, published 2014).

Usually IC50 stands for the concentration that inhibits the measured activity by half.

For the test, the target named is T1, full length active recombinant SYK enzyme (Homo sapiens, UniProt P43405).
T1 construct: full length active recombinant SYK enzyme (Millipore, Calif.); purchased Millipore
The test is described as follows: Inhibition of Syk tyrosine phosphorylation activity (LANCE TR-FRET kinase assay). The format is biochemical. To be noted: 1 nM SYK, 550 nM substrate, 100 μM ATP, 1 hour room temperature. Background: TR-FRET usually uses a lanthanide donor and a delayed reading to cut background.
Regarding `NC(=O)c1cnc(NC[C@@H](N)CC(F)F)nc1Nc1cccc2c1ccn2CC(F)(F)F` [Example 84, (S)-2-(2-amino-4,4-difluorobutylamino)-4-(1-(2,2,2-trifluoroethyl)-1H-indol-4-ylamino)pyrimidine-5-carboxamide], the IC50 is 1 to 10 nM.
For `NC(=O)c1cnc(N[C@H](C2CC2)C2(N)CC2)nc1Nc1ccc2ncsc2c1` [Example 167, (R)-2-(1-(1-aminocyclopropyl)(cyclopropyl)methylamino)-4-(benzo[d]thiazol-6-ylamino)pyrimidine-5-carboxamide] the value was 1 to 10 nM; for `NC(=O)c1cnc(N[C@H](C2CC2)C2(N)CC2)nc1Nc1ccc2c(c1)CCCN2` [Example 153, (R)-2-(1-(1-aminocyclopropyl)(cyclopropyl)methylamino)-4-(1,2,3,4-tetrahydroquinolin-6-ylamino)pyrimidine-5-carboxamide], 10 to 100 nM; for `NC(=O)c1cnc(N[C@H]2[C@@H](N)CCCC2(F)F)nc1Nc1csc2ncccc12` [Example 36, 2-(((1S,6S)-6-amino-2,2-difluorocyclohexyl)amino)-4-(thieno[2,3-b]pyridin-3-ylamino)pyrimidine-5-carboxamide], 10 to 100 nM.
To `NC(=O)c1cnc(N[C@@H]2CCCC(=O)[C@@H]2N)nc1Nc1cccc(-n2nccn2)c1` (racemic) [Example 165] belongs 100 to 1000 nM.
For the compound `CCN1CCc2c(Nc3nc(N[C@@H](CN)C4CC4)ncc3C(N)=O)cccc21` [Example 99, (R)-2-(2-amino-1-cyclopropylethylamino)-4-(1-ethylindolin-4-ylamino)pyrimidine-5-carboxamide], the IC50 is 10 to 100 nM.
As for `NC(=O)c1cnc(N[C@H]2[C@@H](N)CCCC2(F)F)nc1Nc1cnn2ccccc12` [Example 37, 2-(((1S,6S)-6-amino-2,2-difluorocyclohexyl)amino)-4-(pyrazolo[1,5-a]pyridin-3-ylamino)pyrimidine-5-carboxamide], the IC50 lay in the range of 10 to 100 nM.
For `NC(=O)c1cnc(N[C@@H]2CCNC2)nc1Nc1cccc(-n2nccn2)c1` [Example 221, (R)-4-(3-(2H-1,2,3-triazol-2-yl)phenyeamino)-2-(pyrrolidin-3-ylamino)pyrimidine-5-carboxamide] the value was 1 to 10 nM; for `Cc1ccc(Nc2nc(NC[C@H](C)N)ncc2C(N)=O)cc1` [Example 207], 100 to 1000 nM; for `Cc1ccc(Nc2ncc(C(N)=O)c(N[C@H]3CC[C@H](N)CC3)n2)cc1` [Example 244, 4-(trans-4-aminocyclohexylamino)-2-(p-tolylamino)pyrimidine-5-carboxamide], 100 to 1000 nM.
To `NC(=O)c1cnc(N[C@@H]2CCCC[C@@H]2N)nc1Nc1csc2ncccc12` [Example 44, 2-(((1R,2S)-2-aminocyclohexyl)amino)-4-(thieno[2,3-b]pyridin-3-ylamino)pyrimidine-5-carboxamide] belongs 1 to 10 nM; to `NC(=O)c1cnc(N[C@@H]2CCCC[C@@H]2N)nc1Nc1cc(-n2nccn2)c(Cl)cc1Cl` [Example 24, 2-((1R,2S)-2-aminocyclohexylamino)-4-(2,4-dichloro-5-(2H-1,2,3-triazol-2-yl)phenylamino)pyrimidine-5-carboxamide], 10 to 100 nM; to `NC(=O)c1cnc(N[C@@H]2CCCC[C@@H]2N)nc1Nc1ccc2ccncc2c1` [Example 73, 2-((1R,2S)-2-aminocyclohexylamino)-4-(isoquinolin-7-ylamino)pyrimidine-5-carboxamide], 10 to 100 nM.
`Cn1ccc2c(Nc3nc(NCC4CCCC4)ncc3C(N)=O)cccc21` [Example 111, 2-(cyclopentylmethylamino)-4-(1-methyl-1H-indol-4-ylamino)pyrimidine-5-carboxamide]: the IC50 was in the range of 100 to 1000 nM.
For `COc1cncc(Nc2nc(N[C@@H]3CCCC[C@@H]3N)ncc2C(N)=O)c1` [Example 47, 2-(((1R,2S)-2-aminocyclohexyl)amino)-4-((5-methoxypyridin-3-yl)amino)pyrimidine-5-carboxamide] the value was 10 to 100 nM; for `CNC(=O)[C@@H]1C[C@@H](Nc2ncc(C(N)=O)c(Nc3cccc(C)c3)n2)CN1` [Example 218, 2-(((3R,5S)-5-(methylcarbamoyl)pyrrolidin-3-yl)amino)-4-(m-tolylamino)pyrimidine-5-carboxamide], more than 1000 nM.
As for `CC[C@H](Nc1ncc(C(N)=O)c(Nc2cccc(C)c2)n1)C1(N)CC1` [Example 128, (S)-2-(1-(1-aminocyclopropyl)propylamino)-4-(m-tolylamino)pyrimidine-5-carboxamide], the IC50 is 100 to 1000 nM.
To `NC(=O)c1cnc(N[C@@H]2CCC[C@H](F)[C@@H]2N)nc1Nc1ccc2ncsc2c1` [Example 239, 2-((1R,2R,3S)-2-amino-3-fluorocyclohexylamino)-4-(benzo[d]thiazol-6-ylamino)pyrimidine-5-carboxamide] belongs 10 to 100 nM; to `NC(=O)c1cnc(N[C@H]2CNC(=O)C2)nc1Nc1cccc(-n2nccn2)c1` [Example 230], 100 to 1000 nM; to `CC[C@@H](Nc1ncc(C(N)=O)c(Nc2csc3ncccc23)n1)C(N)=O` [Example 55, (R)-2-((1-amino-1-oxobutan-2-yl)amino)-4-(thieno[2,3-b]pyridin-3-ylamino)pyrimidine-5-carboxamide], 10 to 100 nM.
For `CC(C)[C@@H](Nc1ncc(C(N)=O)c(Nc2cccc(-n3nccn3)c2)n1)C1(N)CC1` [Example 138, (R)-4-(3-(2H-1,2,3-triazol-2-yl)phenylamino)-2-(1-(1-aminocyclopropyl)-2-methylpropylamino)pyrimidine-5-carboxamide] the value was 1 to 10 nM; for `CCn1ccc2c(Nc3nc(NC4CC4)ncc3C(N)=O)cccc21` [Example 114, 2-(cyclopropylamino)-4-(1-ethyl-1H-indol-4-ylamino)pyrimidine-5-carboxamide], 100 to 1000 nM; for `Cc1cccc(Nc2ncc(C(N)=O)c(NC3CCC(N)CC3)n2)c1` (stereo in doubt) [Example 246, 4-(trans-4-aminocyclohexylamino)-2-(m-tolylamino)pyrimidine-5-carboxamide], 10 to 100 nM.
To `CC(C)[C@@H](Nc1ncc(C(N)=O)c(Nc2cccc(F)c2)n1)C1(N)CC1` [Example 159, (R)-2-(1-(1-aminocyclopropyl)-2-methylpropylamino)-4-(3-fluorophenylamino)pyrimidine-5-carboxamide] belongs 1 to 10 nM.
With `CC(C)[C@@H](Nc1ncc(C(N)=O)c(Nc2cnc3ccccc3c2)n1)C1(N)CC1` [Example 158, (R)-2-(1-(1-aminocyclopropyl)-2-methylpropylamino)-4-(quinolin-3-ylamino)pyrimidine-5-carboxamide], the IC50 is 1 to 10 nM.
For `CC[C@@H](Nc1ncc(C(N)=O)c(Nc2ccc3cccnc3c2)n1)C(N)=O` [Example 57, (R)-2-((1-amino-1-oxobutan-2-yl)amino)-4-(quinolin-7-ylamino)pyrimidine-5-carboxamide] the value was 10 to 100 nM.
For `NC(=O)c1cnc(N[C@H](CC2CC2)C(N)=O)nc1Nc1cnc2ccccc2c1` [Example 74, (R)-2-(1-amino-3-cyclopropyl-1-oxopropan-2-ylamino)-4-(quinolin-3-ylamino)pyrimidine-5-carboxamide] the value was 10 to 100 nM.
